Reference: publication PMC11283233, “A comparative analysis of NADPH supply strategies in Saccharomyces cerevisiae: Production of D-xylitol from D-xylose as a case study” (Metabolic Engineering Communications, 2024)

How the values were obtained:
[1] = target: T1, Zwf1 (glucose-6-phosphate dehydrogenase) (Saccharomyces cerevisiae, UniProt P11412); assay: NADP+ reduction at […] nm, crude extract of overexpressing strain PRY63; format: biochemical; conditions: 2.5 mM glucose-6-phosphate, 0.67 mM NADP+, 50 mM imidazole pH 7.0, 100 mM KCl, 10 mM MgCl2, 0.1 mM EDTA
T1 construct: full-length, untagged; overexpressed from truncated HXT7 promoter at the genomic ZWF1 locus; crude yeast extract
T1 sequence (P11412 2-505): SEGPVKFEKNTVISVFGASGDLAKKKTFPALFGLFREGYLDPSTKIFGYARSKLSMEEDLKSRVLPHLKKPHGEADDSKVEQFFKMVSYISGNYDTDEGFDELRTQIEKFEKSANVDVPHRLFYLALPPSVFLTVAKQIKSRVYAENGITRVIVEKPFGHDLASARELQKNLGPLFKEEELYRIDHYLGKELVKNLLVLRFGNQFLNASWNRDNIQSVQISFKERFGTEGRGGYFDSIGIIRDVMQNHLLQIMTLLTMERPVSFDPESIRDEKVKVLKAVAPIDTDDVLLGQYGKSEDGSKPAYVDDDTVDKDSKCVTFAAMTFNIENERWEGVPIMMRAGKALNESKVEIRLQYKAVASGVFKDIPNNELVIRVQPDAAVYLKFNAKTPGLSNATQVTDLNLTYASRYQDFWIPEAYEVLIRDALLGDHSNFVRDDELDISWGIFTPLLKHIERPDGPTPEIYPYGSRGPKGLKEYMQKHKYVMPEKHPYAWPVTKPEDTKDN

[2] = target: T2, Zwf1 (glucose-6-phosphate dehydrogenase) (Saccharomyces cerevisiae, UniProt P11412, DEL59-59); assay: NADP+ reduction at […] nm, crude extract of overexpressing strain PRY48 (ZWF1*); format: biochemical; conditions: 2.5 mM glucose-6-phosphate, 0.67 mM NADP+, 50 mM imidazole pH 7.0, 100 mM KCl, 10 mM MgCl2, 0.1 mM EDTA
T2 construct: full-length, untagged; overexpressed from truncated HXT7 promoter at the genomic ZWF1 locus; crude yeast extract
T2 sequence (P11412 with tags, fused parts or gaps DEL59-59): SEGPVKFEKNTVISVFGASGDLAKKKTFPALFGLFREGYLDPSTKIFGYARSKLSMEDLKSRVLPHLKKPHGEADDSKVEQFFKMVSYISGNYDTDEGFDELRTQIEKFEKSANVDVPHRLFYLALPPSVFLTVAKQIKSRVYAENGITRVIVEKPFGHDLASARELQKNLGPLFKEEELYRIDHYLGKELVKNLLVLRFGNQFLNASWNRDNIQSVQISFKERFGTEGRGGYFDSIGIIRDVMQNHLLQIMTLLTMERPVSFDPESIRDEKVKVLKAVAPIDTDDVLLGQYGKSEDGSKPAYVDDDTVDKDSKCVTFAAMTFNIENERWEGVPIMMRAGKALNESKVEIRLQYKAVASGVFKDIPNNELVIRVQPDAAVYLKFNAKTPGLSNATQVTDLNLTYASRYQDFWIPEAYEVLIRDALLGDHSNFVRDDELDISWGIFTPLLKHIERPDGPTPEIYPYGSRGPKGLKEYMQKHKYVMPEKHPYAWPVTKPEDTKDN

[3] = target: T3, Gre3 (coGRE3, ScGRE3) (Saccharomyces cerevisiae, UniProt P38715); assay: xylitol formation in cells, HPLC, versus empty vector; format: cell-based; conditions: whole-cell fermentation, SC medium, 30 g/L glucose, 20 g/L xylose, 30 °C; NADPH-dependent
T3 construct: full-length, codon-optimized or native gene on p425H7, expressed in S. cerevisiae PRY39 (gre3 deleted); intact cells
T3 sequence (P38715 2-327): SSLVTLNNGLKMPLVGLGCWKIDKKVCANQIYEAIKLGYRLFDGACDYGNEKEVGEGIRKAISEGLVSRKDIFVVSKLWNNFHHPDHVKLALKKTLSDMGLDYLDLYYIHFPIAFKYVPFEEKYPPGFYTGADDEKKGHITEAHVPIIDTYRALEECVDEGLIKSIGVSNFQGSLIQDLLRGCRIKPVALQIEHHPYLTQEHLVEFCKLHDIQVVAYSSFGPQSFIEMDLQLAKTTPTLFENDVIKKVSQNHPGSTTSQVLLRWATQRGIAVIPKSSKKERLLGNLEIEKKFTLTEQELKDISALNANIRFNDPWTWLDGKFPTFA

[4] = target: T4, Xyl1 (coXYL1) (Scheffersomyces stipitis, UniProt P31867); assay: as above; format: cell-based; conditions: whole-cell fermentation, SC medium, 30 g/L glucose, 20 g/L xylose, 30 °C; NADPH-dependent
T4 construct: full-length, codon-optimized gene on p425H7, expressed in S. cerevisiae PRY39 (gre3 deleted); intact cells
T4 sequence (P31867 1-318): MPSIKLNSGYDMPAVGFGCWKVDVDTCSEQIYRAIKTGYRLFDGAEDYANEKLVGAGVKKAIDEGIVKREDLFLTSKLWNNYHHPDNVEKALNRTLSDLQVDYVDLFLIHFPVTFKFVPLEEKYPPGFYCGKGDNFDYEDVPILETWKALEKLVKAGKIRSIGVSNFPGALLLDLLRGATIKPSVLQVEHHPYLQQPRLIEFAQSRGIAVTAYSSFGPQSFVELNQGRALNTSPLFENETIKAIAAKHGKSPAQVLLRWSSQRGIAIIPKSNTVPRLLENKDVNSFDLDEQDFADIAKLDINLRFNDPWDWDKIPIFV

Compound | NADP+ reduction at 340 nm, crude extract of overexpressing strain PRY63 [1] | NADP+ reduction at 340 nm, crude extract of overexpressing strain PRY48 (ZWF1*) [2] | xylitol formation in cells, HPLC, versus empty vector [3] | xylitol formation in cells, HPLC, versus empty vector [4]
NC(=O)c1ccc[n+]([C@@H]2O[C@H](COP(=O)(O)OP(=O)(O)OC[C@H]3O[C@@H](n4cnc5c(N)ncnc54)[C@H](OP(=O)(O)O)[C@@H]3O)[C@@H](O)[C@H]2O)c1 [NADP^+] | The reduction of NADP^+ was recorded by continuously measuring the change of the absorbance | the deletion of Glu59 apparently led to a higher Zwf1 activity | – | –
O=P(O)(O)OC[C@H]1OC(O)[C@H](O)[C@@H](O)[C@@H]1O (some centres unmarked) [glucose-6-phosphate] | A G6PDH assay was performed in crude extracts from the engineered strains | – | – | –
OC1OC[C@@H](O)[C@H](O)[C@H]1O (some centres unmarked) [xylose] | – | – | The expression of all XR constructs led to considerably high xylitol titers | The expression of all XR constructs led to considerably high xylitol titers
